Key:
[1] = Antagonist activity at PAR1 in human platelets assessed as inhibition of thrombin-induced platelet aggregation
[2] = Antagonist activity at PAR1 in human platelets assessed as inhibition of haTRAP-induced platelet aggregation

IC50 [1]: 47 nM
IC50 [2]: 25 nM
Structure (SMILES): CCOC(=O)N[C@@H]1CC[C@@H]2[C@@H](C1)C[C@H]1C(=O)O[C@H](C)[C@H]1[C@H]2C=Cc1ccc(-c2cccc(F)c2)cn1 [Ethyl [(3aR,4aR,8aR,9aS)-9(S)-[(E)-2-[5-(3-fluorophenyl)-2-pyridinyl]ethenyl]dodecahydro-1(R)-methyl-3-oxonaphtho[2,3-c]furan-6(R)-yl]carbamate]
